Data as given in patent US20080269242A1, “Crystalline Salts of 7-[4-(4-Naphthalen-1-Yl-Piperazin-1-Yl)-Butoxy]-3,4-Dihydro-1H-[1,8]Naphthyridine-2-One” (priority 2005, published 2008).

Columns and labels:
dopamine D2 receptor = dopamine D2 receptor (Homo sapiens, UniProt P14416); conditions: background statement, compound of WO2005/019215; cited from earlier work
D2 receptors = D2 receptors (Homo sapiens, UniProt P14416); conditions: background statement, compound of WO2005/019215; cited from earlier work
[1] = test system: spontaneous locomotor activity (SLMA); test: Spontaneous locomotor activity (SLMA) in rats; type: in vivo, Male Sprague-Dawley rats; conditions: rat; for SLMA, Mean centimeters traveled in 1 hour±SEM: 60-minute absorption period, recorded 1 hour, vehicle 4066±297
From the text: Effects of 7-[4-(4-naphthalen-1-yl-piperazin-1-yl)-butoxy]-3,4-dihydro-1H-[1,8]naphthyridin-2-one on spontaneous locomotors activity (SLMA) was investigated in an in vivo animal model, which is predictive of antipsychotic efficacy.
Method: Male Sprague-Dawley rats were used in studies where SLMA was quantified using an activity monitor in a sound-attenuated chamber. Rats were randomly assigned to various groups (including a vehicle control group). 7-[4-(4naphthalen-1-yl-piperazin-1-yl)-butoxy]-3,4-dihydro-1H-[1,8]naphthyridin-2-one at doses of 0.1 mg/kg, 0.3 mg/kg, 1 mg/kg, 3 mg/kg, and 10 mg/kg, or vehicle were administered orally. Following a 60-minute absorption period, each rat was placed into the test chamber, and SLMA was recorded for a 1-hour time-period. SLMA is expressed as centimeters traveled. Statistical analysis was performed using a one-way ANOVA followed by a post hoc Dunnett's test.

[2] = Conversion of crystalline form on standing; type: physicochemical; conditions: ambient temperatures
[3] = Solid-state stability study, open dish; type: physicochemical; conditions: for solid-state stability (degradation): open dish, 6 month

Chain of D2 receptors (P14416 whole entry, species assumed): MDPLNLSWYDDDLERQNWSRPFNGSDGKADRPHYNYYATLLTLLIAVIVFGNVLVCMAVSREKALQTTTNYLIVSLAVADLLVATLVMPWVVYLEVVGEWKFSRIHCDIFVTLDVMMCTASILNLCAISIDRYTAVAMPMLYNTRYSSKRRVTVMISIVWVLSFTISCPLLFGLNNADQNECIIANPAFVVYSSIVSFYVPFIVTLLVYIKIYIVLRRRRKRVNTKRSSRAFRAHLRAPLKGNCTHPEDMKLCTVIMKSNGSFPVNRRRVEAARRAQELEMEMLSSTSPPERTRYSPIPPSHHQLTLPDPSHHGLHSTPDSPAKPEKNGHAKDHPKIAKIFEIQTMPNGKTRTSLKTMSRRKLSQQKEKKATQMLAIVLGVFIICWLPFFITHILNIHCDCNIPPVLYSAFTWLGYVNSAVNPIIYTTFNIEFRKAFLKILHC
Chain of dopamine D2 receptor (P14416 whole entry, species assumed): as above

**Q.** Which results are given for O=C1CCc2ccc(OCCCCN3CCN(c4cccc5ccccc45)CC3)nc2N1 [7-[4-(4-naphthalen-1-yl-piperazin-1-yl)-butoxy]-3,4-dihydro-1H-[1,8]naphthyridin-2-one]?
**A.** binding to the dopamine D2 receptor (in words) (dopamine D2 receptor): binds; activity at D2 receptors (in words) (D2 receptors): partial agonist; SLMA, Mean centimeters traveled in 1 hour±SEM ([1]; 0.1 mg/kg orally, not statistically different from vehicle): 3998±133 centimeters; SLMA, Mean centimeters traveled in 1 hour±SEM ([1]; 0.3 mg/kg orally, p<0.05 vs vehicle): 2510±185 centimeters; SLMA, Mean centimeters traveled in 1 hour±SEM ([1]; 1 mg/kg orally, p<0.05 vs vehicle): 1977±173 centimeters; SLMA, Mean centimeters traveled in 1 hour±SEM ([1]; 3 mg/kg orally, p<0.05 vs vehicle): 1742±206 centimeters; SLMA, Mean centimeters traveled in 1 hour±SEM ([1]; 10 mg/kg orally, p<0.05 vs vehicle): 1068±208 centimeters; effect on SLMA (in words) ([1]; oral, 0.1-10 mg/kg): dose-dependent reduction; minimum effective dose (reduction of SLMA) ([1]; oral, estimated): 0.3 mg/kg

**Q.** For O=C1CCc2ccc(OCCCCN3CCN(c4cccc5ccccc45)CC3)nc2N1.O=P(O)(O)O [Form B, 7-[4-(4-naphthalen-1-yl-piperazin-1-yl)-butoxy]-3,4-dihydro-1H-[1,8]naphthyridin-2-one mono-phosphate], which “form conversion on standing” value [2] is on record?
**A.** Its value is “convert to Form A”.

**Q.** With O=C1CCc2ccc(OCCCCN3CCN(c4cccc5ccccc45)CC3)nc2N1.O=P(O)(O)O [Form A, 7-[4-(4-naphthalen-1-yl-piperazin-1-yl)-butoxy]-3,4-dihydro-1H-[1,8]naphthyridin-2-one mono-phosphate] as the molecule, how does the “solid-state stability (degradation)” value ([3]; 25° C./60% relative humidity) read?
**A.** The value was “little or no degradation”.

**Q.** What about the “solid-state stability (degradation)” value ([3]; 30° C./70% relative humidity) of the same molecule?
**A.** Its value is “little or no degradation”.

**Q.** What about the “solid-state stability (degradation)” value ([3]; 40° C./75% relative humidity) of the same molecule?
**A.** Its value is “little or no degradation”.

**Q.** What about the “relative stability of crystalline forms” value ([3]; Form A compared with Form B) of the same molecule?
**A.** The value was “more stable than Form B”.
